Measurements reported in US20080027001A1, “NOGO RECEPTOR FUNCTIONAL MOTIFS, PEPTIDE MIMETICS, AND MUTATED FUNCTIONAL MOTIFS RELATED THERETO, AND METHODS OF USING THE SAME” (priority 2006, published 2008).
Substitutions are numbered along the chain they refer to. Values joined by “and” are separate entries in the source; they are usually repeats but may differ in a detail not shown here. Equal values may be shown once.

What was measured:
[1] = test system: cerebellar granule neurons; assay: Neurite outgrowth on substrate-bound MAG; assay type: cell-based, rat; conditions: tested at up to 200 μg/ml (FIG. 6F)
Experimental: Cerebellar neurons isolated from postnatal day ⅔ rat pups were cultured over monolayers of 3T3 cells (Doherty et al. (1991) Neuron 6(2):247-58) essentially as previously described (Williams et al. (1994) Neuron 13(3):583-94). Monolayers were established by seeding ˜80,000 cells into individual chambers of an eight-chamber tissue culture slide coated with poly-L-lysine and fibronectin. The cell lines, and monolayers, were maintained in Dulbecco's modified Eagle's medium supplemented with 10% fetal calf serum (FCS). […] Following careful fixation with 4% paraformaldehyde, the neurons were stained with a GAP-43 antibody, and the mean length of the longest neurite per cell was measured for ˜120-150 neurons, again as previously described (Williams et al. (1994) supra). […] The average of total neurite lengths from each neuron was measured automatically by the MetaXpress Neurite Outgrowth module (Molecular Devices, Sunnyvale, Calif.) from at least 200 neurons per well, in triplicate wells per experiment. […]

cerebellar neurons = assay: Neurite outgrowth assay, inhibition by soluble MAG-Fc; assay type: cell-based, rat; conditions: MAG-Fc 20 μg/ml, increasing peptide concentrations (FIG. 6E)
Experimental: Cerebellar neurons isolated from postnatal day ⅔ rat pups were cultured over monolayers of 3T3 cells (Doherty et al. (1991) Neuron 6(2):247-58) essentially as previously described (Williams et al. (1994) Neuron 13(3):583-94). Monolayers were established by seeding ˜80,000 cells into individual chambers of an eight-chamber tissue culture slide coated with poly-L-lysine and fibronectin. The cell lines, and monolayers, were maintained in Dulbecco's modified Eagle's medium supplemented with 10% fetal calf serum (FCS). Cocultures were established by removing the media from the monolayers and seeding ˜6000 dissociated cerebellar neurons into each well in SATO medium (modified from Doherty et al. (1990) Neuron 5(2):209-19; Dulbecco's modified Eagle's medium supplemented with 2% FBS, 33% bovine albumin, 0.62 μg/ml progesterone, 161 μg/ml putrescine, 4 μg/ml L-thyroxine, 0.387 μg/ml selenium, and 3.37 μg/ml tri-iodo-thyronine (components from Sigma-Aldrich, St. Louis, Mo.)). Monolayers were established for 24 hours prior to addition of the neurons and the cultures were maintained for ˜23-27 hr. Following careful fixation with 4% paraformaldehyde, the neurons were stained with a GAP-43 antibody, and the mean length of the longest neurite per cell was measured for ˜120-150 neurons, again as previously described (Williams et al. (1994) supra). For neurite outgrowth on substrate-bound MAG, 96-well plates were coated with a thin layer of nitrocellulose (Bio-Rad, Hercules, Calif.) before incubating with 1 μg/ml of MAG(d1-5) (a chimeric construct containing domains 1-5 of the extracellular portion of MAG) at 4° C. overnight. Wells were subsequently coated with 17 μg/ml of poly-D-lysine (Sigma, St. Louis, Mo.), followed by incubation in Dulbecco's modified Eagle's medium containing 10% FCS. Cerebellar granule neurons were dissociated and seeded at a density of 10^4 cells per well. Cells were cultured for 18-20 h before being fixed with 4% paraformaldehyde and stained with a neuronal-specific anti-III-tubulin antibody, Tuj 1 (Covance, Emeryville, Calif.). The average of total neurite lengths from each neuron was measured automatically by the MetaXpress Neurite Outgrowth module (Molecular Devices, Sunnyvale, Calif.) from at least 200 neurons per well, in triplicate wells per experiment. Results were repeated independently more than three times.
Synthetic peptides were all obtained from a commercial supplier (Multiple Peptide Systems, San Diego, Calif.). All peptides were purified to the highest grade by reverse-phase HPLC and obtained at the highest level of purity (>97%). With all peptides, there was no indication of higher molecular weight species. Where peptide sequences are underlined, this denotes a peptide that has been cyclized via a disulfide bond between the given cysteine residues. All peptides were acetylated (e.g., denoted with “N-Ac-”) and amide blocked (e.g., denoted with “—NH2”). Recombinant MAG-Fc chimera was obtained from R&D Systems (Minneapolis, Minn.) and used at final concentrations ranging from 5-25 μg/ml. The monoclonal antibody to GT1b (clone GMR5) was obtained from Seikagaku America (Falmouth, Mass.) and was used at a final concentration of 20 μg/ml. All reagents were diluted into the coculture media and, in general, added to the cultures just prior to the plating of the neurons. GT1b and GM1 were obtained as gifts from Dr. Gino Toffano (Libero, Italy) and University of Milan, and asialo-GM1 was obtained from Sigma (St. Louis, Mo.). The recombinant NgR1(310)-fc and MAG(d1-5) chimeras were expressed and purified in-house. Pharmacological reagents were obtained from Calbiochem (La Jolla, Calif.) and/or Sigma. For reagents used in cell-surface NgR binding assays, please see Examples 1.5 and 1.7. For reagents used in the cell surface p75NTR-NgR-AP binding assay, please see Example 1.13.
In contrast, a soluble MAG-Fc chimera inhibits neurite outgrowth in a manner that depends upon both ganglioside and NgR function. […]

NgR1(310)-fc R199E = target: T1, NgR1(310)-fc R199E (Homo sapiens, UniProt Q9BZR6, R199E); assay: Analytical ultracentrifugation, R199E mutant receptor; assay type: binding
T1 construct: made in house; host or cells: mammalian expression vector
From the text: (§1) Human Nogo Receptor 1 (NgR1)(310)-fc point mutants (FRG-1 (R151E); FRG-2 (R279E); FRG-3 (R199E), and FRG-4 (R151E/R279E/R199E)) were constructed by Genewiz (North Brunswick, N.J.) using their site-directed mutagenesis technology. The template used to construct all the described mutants was wild type human NgR1(310)-fc (SEQ ID NO:59), which was generated by fusing a nucleotide sequence corresponding to the first 310 amino acid of Human Nogo Receptor 1 to a human Fc fragment in a mammalian expression vector (the sequence of wild type NgR1(310)-fc and the expression vector is set forth in SEQ ID NO:60 and a schematic of the expression vector is shown in FIG. 11). […]
(§2) Sedimentation velocity experiments were performed on a Beckman XLI/XLA analytical ultracentrifuge. […] Scans were recorded at 20° C. with a rotor speed of 35,000 rpm, and the signal was detected at 230 nm with a spacing of 0.006 in the continuous mode. Sedimentation profiles were analyzed by the program Sedfit (Schuck (2000) Biophys. J. 78:1606-19) to obtain the sedimentation coefficient distributions. The solvent density (1.006) and partial specific volume (0.72) were calculated using the program Sednterp (Laue et al. (1992) Analytical Ultracentrifugation in Biochemistry and Polymer Science (Harding, S. E., Towe, A. J. and Horton, J. C., eds.) pp. 90-125, Royal Society of Chemistry, Cambridge, U.K). […]

NgR1(310)-fc R279E = target: T2, NgR1(310)-fc R279E (Homo sapiens, UniProt Q9BZR6, R279E); assay: Analytical ultracentrifugation, R279E mutant receptor; assay type: binding
T2 construct: made in house; host or cells: mammalian expression vector
T2 sequence (Q9BZR6 27-310 R279E): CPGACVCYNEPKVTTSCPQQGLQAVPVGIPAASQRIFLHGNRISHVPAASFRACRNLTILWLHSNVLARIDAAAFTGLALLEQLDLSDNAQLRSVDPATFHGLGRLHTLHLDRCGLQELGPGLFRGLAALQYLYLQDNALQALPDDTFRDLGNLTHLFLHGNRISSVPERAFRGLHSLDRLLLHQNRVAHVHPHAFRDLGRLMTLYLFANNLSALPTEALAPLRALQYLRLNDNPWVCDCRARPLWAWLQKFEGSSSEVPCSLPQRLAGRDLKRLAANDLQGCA
From the text: as §1, §2

[2] = test system: anti-hNgR AF 1208 antibody; assay: Analytical ultracentrifugation, specificity control; assay type: binding; conditions: 22 mM GT1b (data not shown)
Experimental: Sedimentation velocity experiments were performed on a Beckman XLI/XLA analytical ultracentrifuge. Wild type NgR(310)-fc (0.21 μM to 0.38 μM final) was added to ganglioside at concentrations increasing from 0 to 48 μM. Mutant protein used in the sedimentation velocity experiments corresponded to the column fraction of greatest purity based on SDS gel analysis. […] The solution (400 μL) was loaded into two-channel (1.2 cm path length) carbon-Epon centerpieces in an An-50-Ti rotor. Scans were recorded at 20° C. with a rotor speed of 35,000 rpm, and the signal was detected at 230 nm with a spacing of 0.006 in the continuous mode. Sedimentation profiles were analyzed by the program Sedfit (Schuck (2000) Biophys. J. 78:1606-19) to obtain the sedimentation coefficient distributions. The solvent density (1.006) and partial specific volume (0.72) were calculated using the program Sednterp (Laue et al. (1992) Analytical Ultracentrifugation in Biochemistry and Polymer Science (Harding, S. E., Towe, A. J. and Horton, J. C., eds.) pp. 90-125, Royal Society of Chemistry, Cambridge, U.K).
The peptide competition studies, together with the direct binding assays, have implicated the FRG motif within loop 2 as being important for MAG function. […]

NgR1(310)-fc = target: T3, NgR1(310)-fc (Homo sapiens, UniProt Q9BZR6); assay: Analytical ultracentrifugation (sedimentation velocity), wild type receptor; assay type: binding; conditions: ganglioside 0 to 48 μM (FIG. 3A-C)
T3 construct: made in house; host or cells: mammalian expression vector (pSMED2)
From the text: as §1, §2

NgR1(310)-fc R151E = target: T4, NgR1(310)-fc R151E (Homo sapiens, UniProt Q9BZR6, R151E); assay: Analytical ultracentrifugation, R151E mutant receptor; assay type: binding
T4 construct: made in house; host or cells: mammalian expression vector
T4 sequence (Q9BZR6 27-310 R151E): T2 sequence (Q9BZR6 27-310 R279E) with R125E, E253R
From the text: as §1, §2

[3] = test system: NgR1 expressed in CHO cells (MAG-AP binding); assay: Neuraminidase treatment, MAG-AP binding to NgR1-expressing CHO cells; conditions: MAG-AP 2.5-20 μg/ml; CHO cells treated with neuraminidase
Experimental: (§3) Chinese hamster ovary (CHO) parental cells and NgR1 stable cells were seeded at 30,000 cells per well in 96-well plates the night before the assay. Various concentrations of Vibrio cholera neuraminidase (Roche Applied Science, Indianapolis, Ind.) in growth medium (Dulbecco's modified Eagle medium containing 10% fetal bovine serum) were incubated with cells for an hour at 37° C. Medium was replaced with affinity-purified MAG-AP or Nogo66-AP in HBSS supplemented with 1% fetal bovine serum and […] of HEPES and incubated at room temperature for 90 min. Cells were then washed four times with supplemented HBSS. AltoPhos (0.6 mg/ml) (Promega, Madison Wis.) was added for indication of bound ligands. After a 30 minute incubation at RT, the plates were read at […] wavelength of 400 nm/505 nm with FLEXSTATION® 11384.
(§4) In neurons, soluble MAG binds to the NgR1 and NgR2 in a sialic acid-dependent manner (Venkatesh et al. (2005) supra). In the present study, the neuraminidase sensitivity of MAG binding to the NgR1 expressed in CHO cells was confirmed.

[4] = test system: NgR1 expressed in CHO cells (Nogo66-AP binding); assay: Neuraminidase treatment, Nogo66-AP binding to NgR1-expressing CHO cells; conditions: highest concentration of neuraminidase; Nogo66-AP 10 μg/ml
Experimental: as §3, §4

T1 sequence (Q9BZR6 27-310 R199E): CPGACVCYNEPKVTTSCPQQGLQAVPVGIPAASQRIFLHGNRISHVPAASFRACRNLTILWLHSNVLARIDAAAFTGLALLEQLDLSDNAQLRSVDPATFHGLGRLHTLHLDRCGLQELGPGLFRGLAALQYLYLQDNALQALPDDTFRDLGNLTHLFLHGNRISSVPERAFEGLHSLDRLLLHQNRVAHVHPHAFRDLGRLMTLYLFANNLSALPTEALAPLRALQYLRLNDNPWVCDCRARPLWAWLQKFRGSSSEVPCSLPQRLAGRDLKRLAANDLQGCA
T3 sequence (Q9BZR6 with tags, fused parts or gaps limits assumed): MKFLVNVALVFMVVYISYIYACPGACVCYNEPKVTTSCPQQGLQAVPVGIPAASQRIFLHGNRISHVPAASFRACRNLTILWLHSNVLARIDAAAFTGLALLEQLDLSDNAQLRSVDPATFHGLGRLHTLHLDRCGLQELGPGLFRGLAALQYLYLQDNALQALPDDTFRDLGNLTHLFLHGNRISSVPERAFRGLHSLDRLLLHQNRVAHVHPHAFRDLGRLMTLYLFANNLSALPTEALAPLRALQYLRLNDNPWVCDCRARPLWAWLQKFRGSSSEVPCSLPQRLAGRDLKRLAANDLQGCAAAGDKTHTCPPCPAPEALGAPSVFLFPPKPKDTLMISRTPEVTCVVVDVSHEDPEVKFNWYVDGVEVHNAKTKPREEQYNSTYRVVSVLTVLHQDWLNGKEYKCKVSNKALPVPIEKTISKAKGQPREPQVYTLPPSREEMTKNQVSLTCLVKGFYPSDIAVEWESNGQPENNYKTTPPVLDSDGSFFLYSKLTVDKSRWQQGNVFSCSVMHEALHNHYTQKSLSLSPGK

For “N-Ac-c[sGrfkq]-NH2 (XGXXXX; not fully specified; cyclised or stapled) [hriNRL2]”, the “effect on suppressed neurite outgrowth on MAG substrate” value [1] was “no significant effect” and the “efficacy in inhibiting the MAG response” value (cerebellar neurons) was “retain full efficacy”.

In the case of GT1b, the “reduction of GT1b/NgR1 complex formation” value (NgR1(310)-fc R199E; R199 mutated) is reported as about 70%, the “GT1b binding relative to wild type / residual complex formation” value (NgR1(310)-fc R199E; mutation of arginine 199, GT1b 22 μM) is reported as ~30% and 33% and the “reduction of GT1b/NgR1 complex formation” value (NgR1(310)-fc R279E; R279 mutated) is reported as about 50%. The “GT1b binding relative to wild type NgR” value (NgR1(310)-fc R279E; mutation of arginine 279, GT1b 22 μM, ratio of ~6.7 S and ~11 S peaks) was “approximately 56%”, the “effect on sedimentation of control antibody” value [2] was “No effect” and the “interaction with NgR1(310)-fc (shift of sedimentation coefficient)” value (NgR1(310)-fc) was “additional peaks with higher sedimentation coefficients appear in a dose-dependent manner”. For the same substance, the “reduction of GT1b/NgR1 complex formation” value (NgR1(310)-fc R151E; R151 mutated) was about 50% and the “GT1b binding relative to wild type” value (NgR1(310)-fc R151E; mutation of arginine 151, GT1b 22 μM) was 49%.

“neuraminidase: Vibrio cholera neuraminidase (Roche Applied Science)” was tested, and the “inhibition of specific binding of MAG-AP to NgR1-expressing cells” value [3] was 55% and the “effect on Nogo66-AP binding to NgR1” value [4] was “completely unaffected”.
